Measurements published in patent publication US11186577B2, “Vasopressin receptor antagonists and products and methods related thereto” (BlackThorn Therapeutics, Inc., priority 2017, dated 2021).

Experiments:
[1] = molecular target: human Oxytocin Receptor (hOTR) (Homo sapiens (Human), UniProt P30559); assay: Oxytocin receptor antagonist assay (oxytocin-evoked calcium, FLIPR, CHEM-1-hOTR cells); assay type: cell-based; conditions: read-out: OT IC50
In short: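 Antagonist mode in CHEM-1-hOTR cells loaded with Calcium-6 dye; compounds (10-point, 1:3 series) preincubated 15 min at 37 °C, then oxytocin added at daily-determined EC80 in HBSS/20 mM HEPES with 0.1% BSA. Fluorescence (ex 470-495, em 515-575 nm) followed 3 min on FLIPR^TETRA; concentration-dependent reduction of oxytocin response measured.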

[2] = molecular target: human Arginine Vasopressin Receptor 1b (AVPR1b) (Homo sapiens (Human), UniProt P47901); assay: Vasopressin V1B receptor antagonist assay (AVP-evoked calcium, FLIPR, CHO-AVPR1b cells); assay type: cell-based
In short: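 CHO cells expressing human AVPR1b, loaded with Calcium-6 dye, were preincubated with compound for 15 min at 37 °C, then challenged with AVP at its daily-determined EC80. Calcium fluorescence was followed for 3 min on FLIPR; 10-point, 1:3 concentration curves gave antagonism as reduced AVP response.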

Sequence of human Arginine Vasopressin Receptor 1b (AVPR1b) (P47901 whole entry): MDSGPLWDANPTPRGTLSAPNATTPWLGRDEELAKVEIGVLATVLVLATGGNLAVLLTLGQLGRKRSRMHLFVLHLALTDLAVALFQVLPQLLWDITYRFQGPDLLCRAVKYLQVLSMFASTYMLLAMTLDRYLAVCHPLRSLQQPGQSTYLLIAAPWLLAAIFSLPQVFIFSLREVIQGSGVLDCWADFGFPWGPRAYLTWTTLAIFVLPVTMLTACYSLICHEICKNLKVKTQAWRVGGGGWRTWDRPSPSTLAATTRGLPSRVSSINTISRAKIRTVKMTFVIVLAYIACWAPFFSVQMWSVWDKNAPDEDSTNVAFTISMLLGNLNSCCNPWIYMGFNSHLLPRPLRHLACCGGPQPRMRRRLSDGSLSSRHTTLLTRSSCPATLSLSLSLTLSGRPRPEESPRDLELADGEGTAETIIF
Sequence of human Oxytocin Receptor (hOTR) (P30559 whole entry): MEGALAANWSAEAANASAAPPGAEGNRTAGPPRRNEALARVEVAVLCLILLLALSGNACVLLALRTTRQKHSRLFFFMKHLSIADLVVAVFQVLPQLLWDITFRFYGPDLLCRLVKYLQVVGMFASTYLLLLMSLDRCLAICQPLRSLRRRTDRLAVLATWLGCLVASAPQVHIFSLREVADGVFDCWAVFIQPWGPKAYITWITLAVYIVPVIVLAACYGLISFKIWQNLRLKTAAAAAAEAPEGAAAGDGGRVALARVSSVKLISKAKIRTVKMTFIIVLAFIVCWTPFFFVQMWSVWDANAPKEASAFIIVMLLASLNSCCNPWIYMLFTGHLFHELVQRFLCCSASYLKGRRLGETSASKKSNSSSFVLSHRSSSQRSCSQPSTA

Row | Compound | IC50 [1] [nM] | IC50 [2] [nM]
1 | CN1Cc2cc(Cl)ccc2-n2c(nnc2C2CC3(C2)CN(c2ccc(F)cn2)C3)C1 [compound 1, 8-chloro-1-(2-(5-fluoropyridin-2-yl)-2-azaspiro[3.3]heptan-6-yl)-5-methyl-5,6-dihydro-4H-benzo[f][1,2,4]triazolo[4,3-a][1,4]diazepine] | > 1000 | > 1000
2 | CN1Cc2cc(Cl)ccc2-n2c(nnc2C2CC3(C2)CN(c2cccc(F)n2)C3)C1 [compound 8] | > 1000 | > 1000
3 | COC(=O)N1Cc2cc(Cl)ccc2-n2c(C3CC4(C3)CN(c3ncccn3)C4)nnc2C1C (centres unmarked) [compound 166] | > 1000 | > 1000
4 | COC(=O)N1Cc2cc(Cl)ccc2-n2c(C3CC4(C3)CN(c3ncc(F)cn3)C4)nnc2C1C (centres unmarked) [compound 170] | > 1000 | > 1000
5 | CC(C)OC(=O)N1Cc2cc(Cl)ccc2-n2c(C3CC4(C3)CN(c3ccc(F)cn3)C4)nnc2C1C (single isomer, unassigned) [Cpd 163A] | 100 to 500 | > 1000
6 | CC1c2nnc(C3CC4(C3)CN(c3ccc(F)cn3)C4)n2-c2ccc(Cl)cc2CN1C(=O)C1(F)CC1 (centres unmarked) [compound 174] | 500 to 1000 | > 1000
7 | CN1Cc2cc(Cl)ccc2-n2c(nnc2C2CC3(C2)CN(c2ccccn2)C3)C1 [compound 2] | > 1000 | > 1000
8 | COC(=O)N1Cc2cc(Cl)ccc2-n2c(C3CC4(C3)CN(c3ncccc3F)C4)nnc2C1C (centres unmarked) [compound 182] | 500 to 1000 | > 1000
9 | CCN1Cc2cc(Cl)ccc2-n2c(nnc2C2CC3(C2)CN(c2cnccn2)C3)C1 [compound 46] | > 1000 | > 1000
10 | CC1c2nnc(C3CC4(C3)CN(c3ccccn3)C4)n2-c2ccc(Cl)cc2CN1C(=O)C1(F)CC1 (single isomer, unassigned) [Cpd 181A] | 100 to 500 | > 1000
11 | O=C(C(F)F)N1Cc2cc(Cl)ccc2-n2c(nnc2C2CC3(C2)CN(C(=O)C2(F)CC2)C3)C1 [compound 134] | > 1000 | > 1000
12 | CC(C)OC(=O)N1Cc2cc(Cl)ccc2-n2c(C3CC4(C3)CN(c3cnccn3)C4)nnc2C1C (centres unmarked) [compound 164] | 100 to 500 | > 1000
13 | COC(=O)N1Cc2cc(Cl)ccc2-n2c(C3CC4(C3)CN(c3ccc(F)cn3)C4)nnc2C1C (single isomer, unassigned) [Cpd 142B] | 500 to 1000 | > 1000
14 | CC1c2nnc(C3CC4(C3)CN(c3ccc(F)cn3)C4)n2-c2ccc(Cl)cc2CN1C(=O)C1(F)CC1 (single isomer, unassigned) [Cpd 174A] | 100 to 500 | > 1000
15 | CC(C)OC(=O)N1Cc2cc(Cl)ccc2-n2c(C3CC4(C3)CN(c3ncccn3)C4)nnc2C1C (centres unmarked) [compound 167] | > 1000 | > 1000
16 | CCOC(=O)N1Cc2cc(Cl)ccc2-n2c(C3CC4(C3)CN(c3ncccn3)C4)nnc2C1C (single isomer, unassigned) [Cpd 168A] | 500 to 1000 | > 1000
17 | CCN1Cc2cc(Cl)ccc2-n2c(nnc2C2CC3(C2)CN(c2ccc(F)cn2)C3)C1 [compound 49] | > 1000 | > 1000
18 | Fc1ccc(N2CC3(CC(c4nnc5n4-c4ccc(Cl)cc4CN(C4CCC4)C5)C3)C2)nc1 [compound 42] | 500 to 1000 | > 1000
19 | COC(=O)N1Cc2cc(Cl)ccc2-n2c(C3CC4(C3)CN(c3ncccn3)C4)nnc2C1C (single isomer, unassigned) [Cpd 166A] | > 1000 | > 1000
20 | CC(=O)N1Cc2cc(Cl)ccc2-n2c(nnc2C2CC3(C2)CN(c2ccc(F)cn2)C3)C1 [compound 64] | > 1000 | > 1000
21 | CC1c2nnc(C3CC4(C3)CN(c3ncc(F)cn3)C4)n2-c2ccc(Cl)cc2CN1C(=O)OC1(C)CC1 (centres unmarked) [compound 173] | 100 to 500 | > 1000
22 | CC(C)N1Cc2cc(Cl)ccc2-n2c(nnc2C2CC3(C2)CN(c2ncccc2F)C3)C1 [compound 54] | > 1000 | > 1000
23 | CCOC(=O)N1Cc2cc(Cl)ccc2-n2c(C3CC4(C3)CN(c3ncccn3)C4)nnc2C1C (centres unmarked) [compound 168] | > 1000 | > 1000
24 | CN1Cc2cc(Cl)ccc2-n2c(nnc2C2CC3(C2)CN(c2cnccn2)C3)C1 [compound 3] | > 1000 | > 1000
25 | COC(=O)N1Cc2cc(Cl)ccc2-n2c(C3CC4(C3)CN(c3cnccn3)C4)nnc2C1C (centres unmarked) [compound 165] | 500 to 1000 | > 1000
26 | Clc1ccc2c(c1)CN(C1COC1)Cc1nnc(C3CC4(C3)CN(c3ccccn3)C4)n1-2 [compound 57, 8-chloro-5-(oxetan-3-yl)-1-(2-(pyridin-2-yl)-2-azaspiro[3.3]heptan-6-yl)-5,6-dihydro-4H-benzo[f][1,2,4]triazolo[4,3-a][1,4]diazepine] | > 1000 | > 1000

Row | Compound | IC50 [1] [nM] | IC50 [2] [nM]
27 | CC(C)N1Cc2cc(Cl)ccc2-n2c(nnc2C2CC3(C2)CN(c2ccccn2)C3)C1 [compound 48] | > 1000 | > 1000
28 | CC1c2nnc(C3CC4(C3)CN(c3cnccn3)C4)n2-c2ccc(Cl)cc2CN1C(=O)C1(F)CC1 (centres unmarked) [compound 177] | > 1000 | > 1000
29 | CC1c2nnc(C3CC4(C3)CN(c3ncc(F)cn3)C4)n2-c2ccc(Cl)cc2CN1C(=O)OC1CC1 (single isomer, unassigned) [Cpd 192A] | > 1000 | > 1000
30 | COC(=O)N1Cc2cc(Cl)ccc2-n2c(nnc2C2CC3(C2)CN(c2ccccn2)C3)C1 [compound 70] | 500 to 1000 | > 1000
31 | CCOC(=O)N1Cc2cc(Cl)ccc2-n2c(C3CC4(C3)CN(c3ccc(F)cn3)C4)nnc2C1C (single isomer, unassigned) [Cpd 169A] | 100 to 500 | > 1000
32 | CCN1Cc2cc(Cl)ccc2-n2c(nnc2C2CC3(C2)CN(c2ccccn2)C3)C1 [compound 45] | > 1000 | > 1000
33 | CC(C)C(=O)N1Cc2cc(Cl)ccc2-n2c(nnc2C2CC3(C2)CN(c2ccccn2)C3)C1 [compound 71] | > 1000 | > 1000
34 | O=C(N1Cc2cc(Cl)ccc2-n2c(nnc2C2CC3(C2)CN(c2cnccn2)C3)C1)C1(F)CC1 [compound 81] | > 1000 | > 1000
35 | CC1c2nnc(C3CC4(C3)CN(c3ncccn3)C4)n2-c2ccc(Cl)cc2CN1C(=O)C1(F)CC1 (centres unmarked) [compound 175] | > 1000 | > 1000
36 | CCC(=O)N1Cc2cc(Cl)ccc2-n2c(nnc2C2CC3(C2)CN(c2ccccn2)C3)C1 [compound 67] | > 1000 | > 1000
37 | CC(C)OC(=O)N1Cc2cc(Cl)ccc2-n2c(C3CC4(C3)CN(c3ncccn3)C4)nnc2C1C (single isomer, unassigned) [Cpd 167A] | 500 to 1000 | > 1000
38 | CC1c2nnc(C3CC4(C3)CN(c3ncc(F)cn3)C4)n2-c2ccc(Cl)cc2CN1C(=O)OC(CF)CF (centres unmarked) [compound 194] | > 1000 | > 1000
39 | FCCN1Cc2cc(Cl)ccc2-n2c(nnc2C2CC3(C2)CN(c2ccccn2)C3)C1 [compound 59] | > 1000 | > 1000
40 | CC(C)N1Cc2cc(Cl)ccc2-n2c(nnc2C2CC3(C2)CN(c2ccc(F)cn2)C3)C1 [compound 50] | > 1000 | > 1000
41 | CCOC(=O)N1Cc2cc(Cl)ccc2-n2c(nnc2C2CC3(C2)CN(c2ccc(F)cn2)C3)C1 [compound 69] | 100 to 500 | > 1000
42 | CC(C)C(=O)N1Cc2cc(Cl)ccc2-n2c(nnc2C2CC3(C2)CN(c2ccc(F)cn2)C3)C1 [compound 63] | > 1000 | > 1000
43 | CCOC(=O)N1Cc2cc(Cl)ccc2-n2c(C3CC4(C3)CN(c3ncc(F)cn3)C4)nnc2C1C (centres unmarked) [compound 172] | > 1000 | > 1000
44 | CC(C)N1Cc2cc(Cl)ccc2-n2c(nnc2C2CC3(C2)CN(c2cnccn2)C3)C1 [compound 47] | > 1000 | > 1000
45 | CCC(=O)N1Cc2cc(Cl)ccc2-n2c(nnc2C2CC3(C2)CN(c2ccc(F)cn2)C3)C1 [compound 72] | > 1000 | > 1000
46 | O=C(OC1CC1)N1Cc2cc(Cl)ccc2-n2c(nnc2C2CC3(C2)CN(c2ccc(F)cn2)C3)C1 [compound 90] | 100 to 500 | > 1000
47 | CC1c2nnc(C3CC4(C3)CN(c3ccc(F)cn3)C4)n2-c2ccc(Cl)cc2CN1C(=O)OC(CF)CF (single isomer, unassigned) [Cpd 203A] | 100 to 500 | > 1000
48 | COCCN1Cc2cc(Cl)ccc2-n2c(nnc2C2CC3(C2)CN(c2ccccn2)C3)C1 [compound 39, 8-chloro-5-(2-methoxyethyl)-1-(2-(pyridin-2-yl)-2-azaspiro[3.3]heptan-6-yl)-5,6-dihydro-4H-benzo[f][1,2,4]triazolo[4,3-a][1,4]diazepine] | > 1000 | > 1000
49 | CC(C)OC(=O)N1Cc2cc(Cl)ccc2-n2c(nnc2C2CC3(C2)CN(C(=O)C2CC2)C3)C1 [compound 153] | > 1000 | > 1000
50 | COC(=O)N1Cc2cc(Cl)ccc2-n2c(nnc2C2CC3(C2)CN(c2ccc(F)cn2)C3)C1 [compound 61] | 500 to 1000 | > 1000
51 | COC(=O)N1Cc2cc(Cl)ccc2-n2c(C3CC4(C3)CN(c3ccc(F)cn3)C4)nnc2C1C (centres unmarked) [compound 142, methyl 8-chloro-1-(2-(5-fluoropyridin-2-yl)-2-azaspiro[3.3]heptan-6-yl)-4-methyl-4H-benzo[f][1,2,4]triazolo[4,3-a][1,4]diazepine-5(6H)-carboxylate] | 500 to 1000 | > 1000
52 | CC1c2nnc(C3CC4(C3)CN(c3ncccn3)C4)n2-c2ccc(Cl)cc2CN1C(=O)OC1CC1 (single isomer, unassigned) [Cpd 171B] | > 1000 | > 1000
